The numbers were not newly measured in article PMC2700308 (Biochemistry, 2009), which cites them from elsewhere.

For this data set, the system named is a protein. Conditions: calorimetric; ref [33].

Structures are written as SMILES.

Turning to `O=S(=O)(O)O` [sulfate], the “ΔH of binding of sulfate to a protein” value was 4.3 kcal/mol.
